One may read the Ki as a measure of affinity in units of concentration, obtained from inhibition or displacement.

For this assay, the target named is Mcl-1 protein (UniProtKB Q07820) (Homo sapiens (Human), UniProt Q07820). As to the kind of experiment: Inhibition of Mcl-1 by the fluorescence polarisation assay (Example A, Method A). The settings on record: fluorescence polarization assay. The class given is binding. In a few lines: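 Protein (5 nM) and fluorescein-tagged peptide tracer (1 nM) incubated with 11-point compound series for 2 h at room temperature in HEPES/NaCl/Tween 20 buffer, pH 7.4, 5% DMSO. Displacement read as decrease in polarisation; IC50 fitted by 4-parameter logistic, converted to Ki (cKi or eKi).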
Sequence of Mcl-1 protein (Q07820 whole entry): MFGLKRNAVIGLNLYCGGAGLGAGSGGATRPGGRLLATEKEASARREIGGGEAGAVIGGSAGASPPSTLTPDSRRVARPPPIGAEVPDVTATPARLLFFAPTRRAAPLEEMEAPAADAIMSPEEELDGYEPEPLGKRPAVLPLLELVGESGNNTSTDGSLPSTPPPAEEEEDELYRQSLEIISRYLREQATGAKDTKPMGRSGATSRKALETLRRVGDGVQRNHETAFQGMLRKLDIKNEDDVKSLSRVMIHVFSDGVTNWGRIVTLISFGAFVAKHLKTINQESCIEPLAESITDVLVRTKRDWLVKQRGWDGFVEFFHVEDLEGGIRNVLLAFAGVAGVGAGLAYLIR
Regarding `O=C(O)[C@]1(Nc2cccc(Cl)c2)CC[C@@]2(CC1)c1ccccc1C[C@@H]2c1ccc(-c2ccccc2)o1` [Example 357, (1r,2′S,4S)-4-(3-chloroanilino)-2′-(5-phenylfuran-2-yl)-2′,3′-dihydrospiro[cyclohexane-1,1′-indene]-4-carboxylic acid], the Ki was 15.4 µM.

For the compound `Cc1cnccc1OCCC1=Cc2ccccc2[C@]12CC[C@@](Nc1cccc(Cl)c1)(C(=O)O)CC2` [Example 189, (1r,4r)-4-(3-chloroanilino)-2′-{2-[(3-methylpyridin-4-yl)oxy]ethyl}spiro[cyclohexane-1,1′-indene]-4-carboxylic acid], the Ki is 0.121 µM.

For `O=C(O)[C@]1(Nc2cccc(Cl)c2)CC[C@@]2(CC1)c1ccccc1CC2c1cccc2c1OCC2` (single isomer, unassigned) [Example 295, (1r,4r)-4-(3-chloroanilino)-2′-(2,3-dihydro-1-benzofuran-7-yl)-2′,3′-dihydrospiro[cyclohexane-1,1′-indene]-4-carboxylic acid], the Ki is 0.643 µM.

Take `O=C(O)[C@]1(Nc2cccc(Cl)c2)CC[C@@]2(CC1)c1ccccc1CC2CCOc1ccccc1` (some centres unmarked) [Example 177, (1r,4r)-4-(3-chloroanilino)-2′-(2-phenoxyethyl)-2′,3′-dihydrospiro[cyclohexane-1,1′-indene]-4-carboxylic acid]: the Ki is 0.226 µM.

For `CC1=C(C(C)C)c2ccccc2[C@]12CC[C@@](Nc1cccc(Br)c1)(C(=O)O)CC2` [Example 204, (1r,4r)-4-(3-bromoanilino)-2′-methyl-3′-(propan-2-yl)spiro[cyclohexane-1,1′-indene]-4-carboxylic acid], the Ki was 22.4 µM.

Take `O=C(O)[C@]1(Nc2cccc(Cl)c2)CC[C@@]2(CC1)c1ccccc1C[C@@H]2c1cccc(Cc2ccccc2)c1` [Example 326, (1r,2′R,4R)-2′-(3-benzylphenyl)-4-(3-chloroanilino)-2′,3′-dihydrospiro[cyclohexane-1,1′-indene]-4-carboxylic acid]: the Ki turned out to be 19.3 µM.

As for `O=C(O)[C@]1(Nc2cccc(Cl)c2)CC[C@@]2(CCc3ccccc32)CC1` [Example 69, (1r,4s)-4-(3-chloroanilino)-2′,3′-dihydrospiro[cyclohexane-1,1′-indene]-4-carboxylic acid], the Ki worked out at 0.706 µM.

Take `Cc1ccccc1CCOCC1=Cc2ccccc2[C@]12CC[C@@](Nc1cccc(Cl)c1)(C(=O)O)CC2` [Example 415, (1s,4s)-4-(3-chloroanilino)-2′-{[2-(2-methylphenyl)ethoxy]methyl}spiro[cyclohexane-1,1′-indene]-4-carboxylic acid]: the Ki amounted to 0.365 µM.

With `O=C(O)[C@]1(Nc2cccc(Cl)c2)CC[C@@]2(CC1)c1ccccc1CC2c1ccccc1` (single isomer, unassigned) [Example 327, (1r,4r)-4-(3-chloroanilino)-2′-phenyl-2′,3′-dihydrospiro[cyclohexane-1,1′-indene]-4-carboxylic acid], the Ki was determined as 7.14 µM.

Turning to `COc1ccc(Cl)c(C2Cc3ccccc3[C@]23CC[C@@](Nc2ccccc2)(C(=O)O)CC3)c1` (single isomer, unassigned) [Example 260, (1r,4r)-4-anilino-2′-(2-chloro-5-methoxyphenyl)-2′,3′-dihydrospiro[cyclohexane-1,1′-indene]-4-carboxylic acid], the Ki stood at 90.1 µM.

For `CC(=O)c1ccc2c(c1)[C@]1(CC[C@@](Nc3cccc(Cl)c3)(C(=O)O)CC1)C(Br)=C2` [Example 132, (1s,4s)-6′-acetyl-2′-bromo-4-(3-chloroanilino)spiro[cyclohexane-1,1′-indene]-4-carboxylic acid], the Ki turned out to be 0.15 µM.

Regarding `Cc1cncnc1OCCCC1Cc2ccccc2[C@]12CC[C@@](Nc1cccc(Cl)c1)(C(=O)O)CC2` (some centres unmarked) [Example 441, (1r,4r)-4-(3-chloroanilino)-2′-{3-[(5-methylpyrimidin-4-yl)oxy]propyl}-2′,3′-dihydrospiro[cyclohexane-1,1′-indene]-4-carboxylic acid], the Ki came out at 0.0691 µM.

With `O=C(O)[C@]1(Nc2cccc(Cl)c2)CC[C@]2(CC1)C(/C=C/c1ccc(-c3ccccc3)cc1)=Cc1ccccc12` [Example 158, (1r,4r)-2′-[(E)-2-([1,1′-biphenyl]-4-yl)ethenyl]-4-(3-chloroanilino)spiro[cyclohexane-1,1′-indene]-4-carboxylic acid], the Ki amounted to 0.311 µM.

With `O=C(O)[C@]1(Nc2cccc(Cl)c2)CC[C@]2(CC1)C(CCNc1ccccc1)=Cc1ccccc12` [Example 166, (1r,4r)-2′-(2-anilinoethyl)-4-(3-chloroanilino)spiro[cyclohexane-1,1′-indene]-4-carboxylic acid], the Ki came out at 0.688 µM.

As for `COc1cccc(C2Cc3ccccc3[C@]23CC[C@@](Nc2cccc(Cl)c2)(C(=O)O)CC3)c1` (single isomer, unassigned) [Example 272, (1r,4r)-4-(3-chloroanilino)-2′-(3-methoxyphenyl)-2′,3′-dihydrospiro[cyclohexane-1,1′-indene]-4-carboxylic acid], the Ki came to 0.127 µM.

As for `COc1ccc(Cl)c(C2Cc3ccccc3[C@]23CC[C@@](Nc2cccc(Cl)c2)(C(=O)O)CC3)c1` (single isomer, unassigned) [Example 259, (1r,4r)-4-(3-chloroanilino)-2′-(2-chloro-5-methoxyphenyl)-2′,3′-dihydrospiro[cyclohexane-1,1′-indene]-4-carboxylic acid], the Ki was 9.97 µM.

For `O=C(O)[C@]1(Nc2cccc(Cl)c2)CC[C@@]2(CC1)c1ccccc1CC2c1cccc(OCC2CC2)c1` (single isomer, unassigned) [Example 354, (1r,4r)-4-(3-chloroanilino)-2′-[3-(cyclopropylmethoxy)phenyl]-2′,3′-dihydrospiro[cyclohexane-1,1′-indene]-4-carboxylic acid], the Ki was 0.402 µM.

In the case of `O=C(O)[C@]1(Nc2cccc(Cl)c2)CC[C@]2(CC1)C(c1ccoc1)=Cc1ccccc12` [Example 329, (1s,4s)-4-(3-chloroanilino)-2′-(furan-3-yl)spiro[cyclohexane-1,1′-indene]-4-carboxylic acid], the inhibitory constant (Ki) stood at 1.65 µM.

As to `Cc1cncn(CCCC2=Cc3ccccc3[C@]23CC[C@@](Nc2cccc(Cl)c2)(C(=O)O)CC3)c1=O` [Example 182, (1r,4r)-4-(3-chloroanilino)-2′-[3-(5-methyl-6-oxopyrimidin-1 (6H)-yl)propyl]spiro[cyclohexane-1,1′-indene]-4-carboxylic acid], the Ki came to 1.62 µM.

In the case of `O=C(O)[C@]1(Nc2cccc(Cl)c2)CC[C@@]2(CC1)c1ccccc1CC2[C@H]1C[C@@H]1COc1ccnc2ccsc12` (single isomer, unassigned) [Example 103, (1r,4r)-4-(3-chloroanilino)-2′-[(1R*,2S*)-2-{[(thieno[3,2-b]pyridin-7-yl)oxy]methyl}cyclopropyl]-2′,3′-dihydrospiro[cyclohexane-1,1′-indene]-4-carboxylic acid], the Ki was found to be 0.214 µM.

Turning to `O=C(O)[C@]1(Nc2cccc(Cl)c2)CC[C@@]2(CC1)c1ccccc1CC2CCCOc1cccc2c1CCN2` (some centres unmarked) [Example 470, (1r,4r)-4-(3-chloroanilino)-2′-{3-[(2,3-dihydro-1H-indol-4-yl)oxy]propyl}-2′,3′-dihydrospiro[cyclohexane-1,1′-indene]-4-carboxylic acid], the Ki turned out to be 0.184 µM.

For the compound `COc1ccc(C2Cc3ccccc3[C@]23CC[C@@](Nc2ccccc2)(C(=O)O)CC3)c(C)c1` (single isomer, unassigned) [Example 256, (1r,4r)-4-anilino-2′-(4-methoxy-2-methylphenyl)-2′,3′-dihydrospiro[cyclohexane-1,1′-indene]-4-carboxylic acid], the Ki was 24.2 µM.

For `O=C(O)[C@]1(Nc2cccc(Cl)c2)CC[C@]2(CC1)C(C1=CCCC1)=Cc1ccccc12` [Example 277, (1r,4r)-4-(3-chloroanilino)-2′-(cyclopent-1-en-1-yl)spiro[cyclohexane-1,1′-indene]-4-carboxylic acid], the Ki stood at 6.09 µM.

For `COc1ccc2c(c1)[C@]1(CC[C@@](Nc3cccc(Cl)c3)(C(=O)O)CC1)C(Br)=C2` [Example 129, (1s,4s)-2′-bromo-4-(3-chloroanilino)-6′-methoxyspiro[cyclohexane-1,1′-indene]-4-carboxylic acid], the Ki is 0.0822 µM.

As to `Cc1cccc(C2Cc3ccccc3C23CCC(Nc2cccc(Br)c2)(C(=O)O)CC3)c1` (centres unmarked) [Example 215, 4-(3-bromoanilino)-2′-(3-methylphenyl)-2′,3′-dihydrospiro[cyclohexane-1,1′-indene]-4-carboxylic acid], the Ki was found to be 0.846 µM.

For the compound `CCOc1cccc(C2=Cc3ccccc3[C@]23CC[C@@](Nc2cccc(Cl)c2)(C(=O)O)CC3)c1` [Example 313, (1s,4s)-4-(3-chloroanilino)-2′-(3-ethoxyphenyl)spiro[cyclohexane-1,1′-indene]-4-carboxylic acid], the Ki was found to be 0.385 µM.

Regarding `COc1ccc(C2Cc3ccccc3C23CCC(Nc2cccc(Cl)c2)(C(=O)O)CC3)cc1Cl` (centres unmarked) [Example 279, (1r,4r)-4-(3-chloroanilino)-2′-(3-chloro-4-methoxyphenyl)-2′,3′-dihydrospiro[cyclohexane-1,1′-indene]-4-carboxylic acid], the Ki stood at 0.383 µM.

Consider `COCCOc1cccc(C2=Cc3ccccc3[C@]23CC[C@@](Nc2cccc(Cl)c2)(C(=O)O)CC3)c1` [Example 315, (1s,4s)-4-(3-chloroanilino)-2′-[3-(2-methoxyethoxy)phenyl]spiro[cyclohexane-1,1′-indene]-4-carboxylic acid], for which the Ki is 0.546 µM.

Take `O=C(O)[C@]1(Nc2cccc(Cl)c2)CC[C@@]2(CC1)c1ccccc1CC2[C@H]1C[C@@H]1COc1ccccc1` (relative stereo) [Example 109, (1r,4r)-4-(3-chloroanilino)-2′-[(1R*,2S*)-2-(phenoxymethyl)cyclopropyl]-2′,3′-dihydrospiro[cyclohexane-1,1′-indene]-4-carboxylic acid]: the Ki came to 0.745 µM.

The values are drawn from patent US20240150293A1, “SPIROCYCLOHEXANE DERIVATIVES, PHARMACEUTICAL COMPOSITIONS CONTAINING THEM AND THEIR USES AS ANTI-APOPTOTIC INHIBITORS” (LES LABORATOIRES SERVIER, priority 2021, published 2024).
